ChEMBL document CHEMBL3352194, “The discovery of benzenesulfonamide-based potent and selective inhibitors of voltage-gated sodium channel Na(v)1.7” (Bioorg Med Chem Lett, 2014)

Assays:
CYP2D6 = CYP2D6 (Homo sapiens, UniProt P10635); test: (§1) Inhibition of CYP2D6 (unknown origin) using bufuralol substrate at 10 uM; type: ADME; conditions: probe bufuralol
CYP2C19 = CYP2C19 (Homo sapiens, UniProt P33261); test: (§2) Inhibition of CYP2C19 (unknown origin) using omeprazole substrate at 10 uM; type: ADME; conditions: probe omeprazole
Chain of CYP2C19 (P33261 whole entry): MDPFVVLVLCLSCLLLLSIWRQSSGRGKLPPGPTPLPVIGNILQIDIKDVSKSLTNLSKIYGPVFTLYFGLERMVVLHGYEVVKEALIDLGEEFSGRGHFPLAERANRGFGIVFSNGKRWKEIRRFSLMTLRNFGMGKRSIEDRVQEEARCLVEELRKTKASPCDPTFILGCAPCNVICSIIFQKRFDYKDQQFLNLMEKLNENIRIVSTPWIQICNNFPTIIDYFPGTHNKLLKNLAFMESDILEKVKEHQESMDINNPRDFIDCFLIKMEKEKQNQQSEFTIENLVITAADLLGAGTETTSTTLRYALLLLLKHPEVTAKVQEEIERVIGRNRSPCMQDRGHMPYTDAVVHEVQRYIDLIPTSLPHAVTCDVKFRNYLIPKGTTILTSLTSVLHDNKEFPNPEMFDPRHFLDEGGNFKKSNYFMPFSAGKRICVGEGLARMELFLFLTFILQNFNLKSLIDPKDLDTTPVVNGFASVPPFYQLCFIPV

CYP3A4 = CYP3A4 (Homo sapiens, UniProt P08684); test: (§3) Inhibition of CYP3A4 (unknown origin) using midazolam substrate at 10 uM; type: ADME; conditions: probe midazolam
Chain of CYP3A4 (P08684 whole entry): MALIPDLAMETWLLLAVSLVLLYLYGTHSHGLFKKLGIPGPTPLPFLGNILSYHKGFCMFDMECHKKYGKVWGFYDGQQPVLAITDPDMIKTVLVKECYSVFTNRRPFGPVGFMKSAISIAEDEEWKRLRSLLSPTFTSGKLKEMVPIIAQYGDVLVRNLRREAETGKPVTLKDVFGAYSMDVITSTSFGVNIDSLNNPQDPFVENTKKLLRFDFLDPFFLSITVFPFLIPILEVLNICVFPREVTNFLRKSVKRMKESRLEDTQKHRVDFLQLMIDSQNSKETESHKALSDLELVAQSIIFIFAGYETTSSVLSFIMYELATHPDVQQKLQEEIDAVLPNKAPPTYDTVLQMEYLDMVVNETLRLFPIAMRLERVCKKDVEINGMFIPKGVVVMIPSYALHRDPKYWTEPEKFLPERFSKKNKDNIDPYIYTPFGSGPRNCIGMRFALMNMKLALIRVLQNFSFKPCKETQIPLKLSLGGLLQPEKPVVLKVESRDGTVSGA

CYP2C9 = CYP2C9 (Homo sapiens, UniProt P11712); test: (§4) Inhibition of CYP2C9 (unknown origin) using diclofenac substrate at 10 uM; type: ADME; conditions: probe diclofenac
Chain of CYP2C9 (P11712 whole entry): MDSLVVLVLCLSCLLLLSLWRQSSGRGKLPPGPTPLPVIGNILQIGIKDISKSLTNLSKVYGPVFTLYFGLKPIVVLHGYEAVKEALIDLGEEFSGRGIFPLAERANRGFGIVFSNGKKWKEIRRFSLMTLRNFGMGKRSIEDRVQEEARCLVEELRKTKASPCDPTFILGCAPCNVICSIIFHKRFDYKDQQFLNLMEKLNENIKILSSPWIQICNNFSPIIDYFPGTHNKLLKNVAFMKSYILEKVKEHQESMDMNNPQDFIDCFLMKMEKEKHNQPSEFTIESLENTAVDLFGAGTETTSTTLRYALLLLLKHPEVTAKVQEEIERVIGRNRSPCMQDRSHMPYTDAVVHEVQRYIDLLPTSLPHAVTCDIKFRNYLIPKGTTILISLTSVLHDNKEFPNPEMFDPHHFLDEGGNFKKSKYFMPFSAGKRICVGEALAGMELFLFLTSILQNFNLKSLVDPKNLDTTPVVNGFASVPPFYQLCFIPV

Cytochrome P450 2C19 [1] = target: T1, Cytochrome P450 2C19 (Homo sapiens, UniProt P33261); test: Inhibition of CYP2C19 (unknown origin) using omeprazole substrate; type: ADME
T1 sequence (P33261 whole entry): as the sequence (P33261 whole entry) above

Cytochrome P450 2D6 [2] = target: T2, Cytochrome P450 2D6 (Homo sapiens, UniProt P10635); test: Inhibition of CYP2D6 (unknown origin) using bufuralol substrate; type: ADME
T2 sequence (P10635 whole entry): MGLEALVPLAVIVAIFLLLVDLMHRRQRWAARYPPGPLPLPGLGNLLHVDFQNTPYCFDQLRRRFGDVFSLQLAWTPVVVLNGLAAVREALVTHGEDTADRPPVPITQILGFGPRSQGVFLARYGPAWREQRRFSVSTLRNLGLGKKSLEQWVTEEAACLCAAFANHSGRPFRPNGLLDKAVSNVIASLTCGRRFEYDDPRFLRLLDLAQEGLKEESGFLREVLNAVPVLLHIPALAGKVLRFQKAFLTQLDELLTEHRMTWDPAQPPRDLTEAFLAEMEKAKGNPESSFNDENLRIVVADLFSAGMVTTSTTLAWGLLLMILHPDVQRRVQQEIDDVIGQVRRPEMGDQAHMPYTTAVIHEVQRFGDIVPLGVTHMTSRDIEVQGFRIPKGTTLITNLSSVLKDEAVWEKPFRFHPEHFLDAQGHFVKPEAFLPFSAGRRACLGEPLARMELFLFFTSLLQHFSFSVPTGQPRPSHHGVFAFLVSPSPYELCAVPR

Cytochrome P450 2C9 [3] = target: T3, Cytochrome P450 2C9 (Homo sapiens, UniProt P11712); test: Inhibition of CYP2C9 (unknown origin) using diclofenac substrate; type: ADME
T3 sequence (P11712 whole entry): as the sequence (P11712 whole entry) above

Cytochrome P450 3A4 [4] = target: T4, Cytochrome P450 3A4 (Homo sapiens, UniProt P08684); test: Inhibition of CYP3A4 (unknown origin) using midazolam substrate; type: ADME
T4 sequence (P08684 whole entry): as the sequence (P08684 whole entry) above

[5] = target: Sodium channel protein type 9 subunit alpha (Homo sapiens, UniProt Q15858); test: Inhibition of human Nav1.7 expressed in HEK cells assessed as reduction in sodium current at -60 mV holding potential by PatchXpress platform based whole cell patch clamp electrophysiological assay; design: species or system HEK293
[6] = target: Sodium channel protein type 5 subunit alpha (Homo sapiens, UniProt Q14524); test: Inhibition of human Nav1.5 expressed in HEK cells assessed as reduction in sodium current at -60 mV holding potential by PatchXpress platform based whole cell patch clamp electrophysiological assay; design: species or system HEK293
Chain of Sodium channel protein type 5 subunit alpha (Q14524 whole entry): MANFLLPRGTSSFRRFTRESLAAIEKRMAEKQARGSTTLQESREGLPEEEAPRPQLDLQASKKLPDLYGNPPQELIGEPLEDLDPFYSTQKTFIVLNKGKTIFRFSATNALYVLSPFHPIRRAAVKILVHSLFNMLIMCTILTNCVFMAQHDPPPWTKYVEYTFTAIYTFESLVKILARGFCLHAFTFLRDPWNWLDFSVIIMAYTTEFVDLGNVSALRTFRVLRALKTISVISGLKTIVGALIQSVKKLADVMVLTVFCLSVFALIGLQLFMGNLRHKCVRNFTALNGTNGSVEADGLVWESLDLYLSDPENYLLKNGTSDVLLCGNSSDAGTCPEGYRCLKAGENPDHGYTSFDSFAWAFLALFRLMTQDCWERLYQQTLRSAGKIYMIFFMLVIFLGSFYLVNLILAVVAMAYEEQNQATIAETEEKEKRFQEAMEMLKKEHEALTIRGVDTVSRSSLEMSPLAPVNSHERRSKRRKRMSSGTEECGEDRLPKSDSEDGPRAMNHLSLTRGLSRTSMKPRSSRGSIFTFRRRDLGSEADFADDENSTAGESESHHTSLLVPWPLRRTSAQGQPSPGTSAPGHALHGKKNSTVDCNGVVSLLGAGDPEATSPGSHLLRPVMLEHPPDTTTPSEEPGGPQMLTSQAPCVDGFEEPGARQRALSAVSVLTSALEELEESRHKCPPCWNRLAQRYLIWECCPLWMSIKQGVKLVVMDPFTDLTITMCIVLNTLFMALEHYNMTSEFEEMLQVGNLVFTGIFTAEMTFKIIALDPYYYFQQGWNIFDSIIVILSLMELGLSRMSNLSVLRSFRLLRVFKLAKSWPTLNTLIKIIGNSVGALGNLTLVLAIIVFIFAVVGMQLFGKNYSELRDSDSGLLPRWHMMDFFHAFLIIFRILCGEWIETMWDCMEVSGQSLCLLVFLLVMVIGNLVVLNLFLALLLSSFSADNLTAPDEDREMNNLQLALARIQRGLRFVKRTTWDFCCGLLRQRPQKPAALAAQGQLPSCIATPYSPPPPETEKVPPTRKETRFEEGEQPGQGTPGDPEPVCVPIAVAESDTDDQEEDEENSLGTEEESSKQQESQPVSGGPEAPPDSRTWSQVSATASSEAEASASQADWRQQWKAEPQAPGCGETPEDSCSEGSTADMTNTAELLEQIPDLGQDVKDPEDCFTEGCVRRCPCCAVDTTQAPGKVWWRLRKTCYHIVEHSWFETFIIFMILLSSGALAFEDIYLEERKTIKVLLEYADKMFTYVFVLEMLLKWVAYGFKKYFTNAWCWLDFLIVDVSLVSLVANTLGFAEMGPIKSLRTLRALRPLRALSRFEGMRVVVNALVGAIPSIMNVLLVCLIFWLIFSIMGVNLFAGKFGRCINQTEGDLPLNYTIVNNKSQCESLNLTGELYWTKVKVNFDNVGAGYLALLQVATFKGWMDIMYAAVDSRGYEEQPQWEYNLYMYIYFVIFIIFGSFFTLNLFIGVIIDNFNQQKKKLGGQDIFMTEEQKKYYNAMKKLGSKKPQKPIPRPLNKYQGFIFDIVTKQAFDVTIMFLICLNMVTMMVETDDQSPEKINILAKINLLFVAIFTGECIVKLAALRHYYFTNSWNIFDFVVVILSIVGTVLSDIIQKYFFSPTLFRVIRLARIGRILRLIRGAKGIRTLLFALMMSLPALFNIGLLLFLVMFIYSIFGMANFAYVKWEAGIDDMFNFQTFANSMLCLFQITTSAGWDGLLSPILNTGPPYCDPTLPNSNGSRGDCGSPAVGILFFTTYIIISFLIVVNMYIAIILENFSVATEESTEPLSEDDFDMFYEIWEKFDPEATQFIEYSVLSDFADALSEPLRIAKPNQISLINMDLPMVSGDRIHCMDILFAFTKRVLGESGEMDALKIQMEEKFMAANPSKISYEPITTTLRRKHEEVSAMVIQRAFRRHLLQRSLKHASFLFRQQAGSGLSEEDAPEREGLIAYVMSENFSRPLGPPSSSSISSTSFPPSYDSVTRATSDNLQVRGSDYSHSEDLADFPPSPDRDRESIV

Homo sapiens = organism: Homo sapiens; test: Selectivity index, ratio of IC50 for human Nav1.5 to IC50 for human Nav1.7
Cytochrome P450 2D6 [7] = target: T2, Cytochrome P450 2D6; test: as §1; type: ADME; conditions: 10 µM
Cytochrome P450 2C19 [8] = target: T1, Cytochrome P450 2C19; test: as §2; type: ADME; conditions: 10 µM
Cytochrome P450 3A4 [9] = target: T4, Cytochrome P450 3A4; test: as §3; type: ADME; conditions: 10 µM
Cytochrome P450 2C9 [10] = target: T3, Cytochrome P450 2C9; test: as §4; type: ADME; conditions: 10 µM

Chain of CYP2D6 (P10635 whole entry): as the sequence (P10635 whole entry) above

Row | Compound | inhibition at 10 µM (CYP2D6) | inhibition at 10 µM (CYP2C19) | inhibition at 10 µM (CYP3A4) | inhibition at 10 µM (CYP2C9) | IC50 [5] | IC50 [6] | other results
1 | O=S(=O)(Nc1ncns1)c1cc(F)c(OC[C@@H]2CNCC[C@H]2c2ccc(Cl)cc2)cc1F (racemic) | 93% | 75% | 94% | 100% |  |  | 
2 | O=S(=O)(Nc1ncns1)c1cc(F)c(OC[C@H]2CNCC[C@@H]2c2ccc(Cl)cc2)cc1F |  |  |  |  |  |  | IC50 (Cytochrome P450 2C19 [1]): > 10 µM; IC50 (Cytochrome P450 2D6 [2]): 0.26 µM; IC50 (Cytochrome P450 2C9 [3]): 0.63 µM; IC50 (Cytochrome P450 3A4 [4]): 0.15 µM
3 | Cc1nsc(NS(=O)(=O)c2cc(F)c(OC[C@@H]3CNCC[C@H]3c3ccc(Cl)cc3)cc2F)n1 (relative stereo) | 55% | 73% | 61% | 100% | 0.194 µM |  | 
4 | O=S(=O)(Nc1nncs1)c1cc(F)c(OC[C@@H]2CNCC[C@H]2c2ccc(Cl)cc2)cc1F (relative stereo) | 54% | 35% | 30% | 99% | 0.084 µM | > 10 µM | 
5 | O=S(=O)(Nc1ncns1)c1cc(F)c(OC[C@@H]2CNCC[C@H]2c2ccccc2)cc1F (relative stereo) | 82% | 81% | 95% | 81% | 0.0079 µM | > 10 µM | Ratio IC50 (Homo sapiens): > 1000
6 | O=S(=O)(Nc1ncns1)c1cc(F)c(OC[C@H]2CNCC[C@@H]2c2ccc(Cl)c(F)c2)cc1F (relative stereo) | 85% | 60% | 96% | 100% |  | > 10 µM | 
7 | O=S(=O)(Nc1ncccn1)c1cc(F)c(OC[C@@H]2CNCC[C@H]2c2ccc(Cl)cc2)cc1F (relative stereo) | 34% | 15% | 12% | 60% | 0.053 µM | > 10 µM | 
8 | O=S(=O)(Nc1ccc(F)cn1)c1cc(F)c(OC[C@@H]2CNCC[C@H]2c2ccc(Cl)cc2)cc1F (relative stereo) | 50% | 56% | 42% | 99% | 0.071 µM | > 10 µM | 
9 | O=S(=O)(Nc1ncns1)c1cc(F)c(OC[C@@H]2CN(CCF)CC[C@H]2c2ccc(Cl)cc2)cc1F | 90% | 96% | 98% | 97% | 0.007 µM | > 10 µM | 
10 | O=S(=O)(Nc1ncc(Cl)s1)c1cc(F)c(OC[C@@H]2CNCC[C@H]2c2ccc(Cl)cc2)cc1F (relative stereo) | 40% | 20% | 11% | 100% |  |  | 
11 | O=S(=O)(Nc1ncns1)c1cc(F)c(OC[C@H]2CNCC[C@H]2c2ccc(Cl)cc2)cc1F |  |  |  |  | 0.237 µM |  | 
12 | O=S(=O)(Nc1ncns1)c1cc(F)c(OC[C@@H]2CN(CC(F)(F)F)CC[C@H]2c2ccc(Cl)cc2)cc1F (relative stereo) | 47% | 85% | 97% | 100% | 0.13 µM | 2.6 µM | 
13 | O=S(=O)(Nc1ncns1)c1cc(F)c(OC[C@@H]2CNCC[C@H]2c2ccc(F)cc2)cc1F (relative stereo) | 92% | 97% | 96% | 100% | 0.0068 µM | > 10 µM | 
14 | O=S(=O)(Nc1ncns1)c1cc(F)c(OC[C@H]2CNCC[C@@H]2c2ccc(F)c(F)c2)cc1F (relative stereo) | 85% | 74% | 90% | 96% |  | > 10 µM | 
15 | O=S(=O)(Nc1cccnn1)c1cc(F)c(OC[C@@H]2CNCC[C@H]2c2ccc(Cl)cc2)cc1F (relative stereo) | 37% | 36% | 13% | 49% | 0.171 µM |  | 
16 | O=S(=O)(Nc1ncns1)c1cc(F)c(OC[C@@H]2CCCC[C@H]2c2ccc(Cl)cc2)cc1F (relative stereo) | 66% | 95% | 99% | 100% | 0.28 µM | 24.7 µM | 

Row | Compound | inhibition at 10 µM (CYP2D6) | inhibition at 10 µM (CYP2C19) | inhibition at 10 µM (CYP3A4) | inhibition at 10 µM (CYP2C9) | IC50 [5] | IC50 [6] | other results
17 | CN1CC[C@H](c2ccc(Cl)cc2)[C@@H](COc2cc(F)c(S(=O)(=O)Nc3ncns3)cc2F)C1 |  |  |  |  | 0.004 µM | > 10 µM | IC50 (Cytochrome P450 2C19 [1]): > 10 µM; IC50 (Cytochrome P450 2D6 [2]): 0.27 µM; IC50 (Cytochrome P450 2C9 [3]): 0.88 µM; IC50 (Cytochrome P450 3A4 [4]): 0.14 µM
18 | Cc1cc(NS(=O)(=O)c2cc(F)c(OC[C@@H]3CNCC[C@H]3c3ccc(Cl)cc3)cc2F)no1 (relative stereo) | 38% | 29% | 24% | 80% | 1.89 µM |  | 
19 | O=S(=O)(Nc1ncc(F)cn1)c1cc(F)c(OC[C@@H]2CNCC[C@H]2c2ccc(Cl)cc2)cc1F (relative stereo) | 35% | 26% | 25% | 73% |  | > 10 µM | 
20 | CN1CC[C@@H](c2ccc(Cl)cc2)[C@H](COc2cc(F)c(S(=O)(=O)Nc3ncns3)cc2F)C1 |  |  |  |  |  |  | inhibition (INH) (Cytochrome P450 2D6 [7]): 69%; inhibition (INH) (Cytochrome P450 2C19 [8]): 71%; IC50 ([6]; hek293): > 10 µM; inhibition (INH) (Cytochrome P450 3A4 [9]): 96%; inhibition (INH) (Cytochrome P450 2C9 [10]): 93%
21 | O=S(=O)(Nc1ncns1)c1cc(F)c(OC[C@@H]2CNCC[C@H]2c2ccc(Cl)cc2)cc1F |  |  |  |  | 0.059 µM |  | inhibition (INH) (Cytochrome P450 2D6 [7]): 82%; inhibition (INH) (Cytochrome P450 2C19 [8]): 84%; inhibition (INH) (Cytochrome P450 3A4 [9]): 96%
22 | O=S(=O)(Nc1ncns1)c1cc(F)c(OC[C@@H]2CNC[C@H]2c2ccc(Cl)cc2)cc1F (relative stereo) | 97% | 90% | 93% | 100% | 0.05 µM |  | 
23 | O=S(=O)(Nc1ncns1)c1cc(F)c(OC[C@@H]2CCNC[C@H]2c2ccc(F)cc2)cc1F (relative stereo) | 61% | 69% | 89% | 97% | 0.032 µM | 5.9 µM | 
24 | O=S(=O)(Nc1ccncn1)c1cc(F)c(OC[C@@H]2CNCC[C@H]2c2ccc(Cl)cc2)cc1F (relative stereo) | 94% | 72% | 57% | 91% |  | > 10 µM | 
25 | Cc1ccc([C@H]2CCNC[C@@H]2COc2cc(F)c(S(=O)(=O)Nc3ncns3)cc2F)cc1 (relative stereo) | 81% | 59% | 95% | 100% | 0.013 µM | > 10 µM | 
26 | O=S(=O)(Nc1ncc(F)cn1)c1cc(F)c(OC[C@H]2CNCC[C@@H]2c2ccc(Cl)cc2)cc1F |  |  |  |  |  | > 10 µM | IC50 (Cytochrome P450 2C19 [1]): > 10 µM; IC50 (Cytochrome P450 2D6 [2]): > 10 µM; IC50 (Cytochrome P450 2C9 [3]): > 10 µM; IC50 (Cytochrome P450 3A4 [4]): > 10 µM
27 | O=S(=O)(Nc1ncns1)c1cc(F)c(OC[C@@H]2CN(CC(F)F)CC[C@H]2c2ccc(Cl)cc2)cc1F (relative stereo) | 61% | 88% | 98% | 100% | 0.038 µM |  | 
28 | O=S(=O)(Nc1ncns1)c1cc(F)c(OCC2(F)CNCCC2c2ccc(F)cc2)cc1F (stereo not given) | 78% | 71% | 94% | 99% |  | > 10 µM | 
29 | CN1CC[C@@H](c2ccc(Cl)cc2)[C@H](COc2cc(F)c(S(=O)(=O)Nc3ncns3)cc2F)C1 (relative stereo) |  | 86% | 97% | 97% | 0.011 µM | > 10 µM | inhibition (INH) (Cytochrome P450 2D6 [7]): 93%
30 | CC(C)(C)OC(=O)N1CC[C@@H](c2ccc(Cl)cc2)[C@H](COc2cc(F)c(S(=O)(=O)Nc3ncns3)cc2F)C1 (relative stereo) | 78% | 100% | 98% | 100% | 0.164 µM |  | 
31 | Cc1cnc(NS(=O)(=O)c2cc(F)c(OC[C@@H]3CNCC[C@H]3c3ccc(Cl)cc3)cc2F)s1 (relative stereo) | 48% | 42% | 22% | 99% |  |  | 
32 | O=C1C[C@@H](c2ccc(F)cc2)[C@H](COc2cc(F)c(S(=O)(=O)Nc3ncns3)cc2F)CN1 (relative stereo) | 6% | 64% | 95% | 58% | 0.082 µM | > 10 µM | 
